Like-named read-outs stand apart in the source and are kept apart here.
Legend:
in vivo = details: SD, rat
Method: The compounds disclosed herein were administered in form of a saline solution containing 5% DMSO, 5% Kolliphor HS 15 and 90% Saline. For intravenous administration (iv), the animals were administered with a dose of 1 mg/kg, and blood samples (0.3 mL) were collected at the time points of 0.083, 0.25, 0.5, 1.0, 2.0, 5.0, 7.0 and 24 h after drug administration, then each blood sample was processed to separate plasma by centrifugation at 3000 rpm or 4000 rpm for 10 minutes. For oral administration (po), the animals were administered with a dose of 5 mg/kg, and blood samples (0.3 mL) were collected at the time points of 0.25, 0.5, 1.0, 2.0, 5.0, 7.0 and 24 h after drug administration, then each blood sample was processed to separate plasma by centrifugation at 3000 rpm or 4000 rpm for 10 minutes. Plasma samples were collected and stored at −20° C. or −70° C. until LC/MS/MS analysis.

virus H1N1 A/Weiss/43 = assay: microbe, parasite or virus in culture; assay type: cell-based; details: Influenza A virus, H1N1, 120 h; MDCK cells, CPE, 5 days, CCK-8; read-out: EC50, inhibitory activity against influenza virus (A/Weiss/43(H1N1))
[1] = tested on: Influenza B virus-B/Lee/40; assay: microbe, parasite or virus in culture; assay type: cell-based; details: 72 h, read-out: EC50, inhibitory activity against influenza virus (Influenza B virus-B/Lee/40)
[2] = MDCK cells, CPE, 3 days, CellTiter

Row | Structure (SMILES) | AUC(0-inf) (in vivo; iv, 1 mg/kg) [ng·h/mL] | AUC(0-t) (in vivo; iv, 1 mg/kg) [ng·h/mL] | clearance (in vivo; iv, 1 mg/kg) [mL/min/kg] | AUC(0-inf) (in vivo; po, 5 mg/kg) [ng·h/mL] | AUC(0-t) (in vivo; po, 5 mg/kg) [ng·h/mL] | EC50 (virus H1N1 A/Weiss/43) [nM] | EC50 [1, 2] [nM] | EC50 ([1]; MDCK) [nM]
1 | O=C(O)[C@H]1C2CCC(CC2)[C@@H]1Nc1nc(-c2c[nH]c3ncc(Cl)nc23)ncc1F [Compound A, reference compound] | 894 | 894 | 312 | 2910 | 2880 | 33.2 | – | –
2 | CC(C)(C)[C@@H](CC(=O)O)Nc1nc(-c2c[nH]c3ncc(Cl)nc23)nc(-c2ccco2)c1F [Example 8, (R)-3-((2-(2-chloro-5H-pyrrolo[2,3-b]pyrazin-7-yl)-5-fluoro-6-(furan-2-yl)pyrimidin-4-yl)amino)-4,4-dimethylpentanoic Acid] | 1550 | 1540 | 187 | 5440 | 5420 | 0.394 | – | –
3 | O=C(O)[C@H]1C2CCC(CC2)[C@@H]1Nc1nc(-c2c[nH]c3ncc(Cl)nc23)nc(-c2cccs2)c1F [Example 13, (2S,3S)-3-((2-(2-chloro-5H-pyrrolo[2,3-b]pyrazin-7-yl)-5-fluoro-6-(thiophen-2-yl)pyrimidin-4-yl)amino)bicyclo[2.2.2]octane-2-carboxylic Acid] | 10100 | 9900 | 27.8 | 29000 | 27400 | 0.017 | – | –
4 | CC(C)n1ccc2c(N[C@H]3C4CCC(CC4)[C@@H]3C(=O)O)nc(-c3c[nH]c4ncc(Cl)nc34)nc21 [Example 20, (2S,3S)-3-((2-(2-chloro-5H-pyrrolo[2,3-b]pyrazin-7-yl)-7-isopropyl-7H-pyrrolo[2,3-d]pyrimidin-4-yl)amino)bicyclo[2.2.2]octane-2-carboxylic Acid] | – | – | – | – | – | 0.192 | 1620 | –
5 | O=C(O)[C@H]1C2CCC(CC2)[C@@H]1Nc1nc(-c2c[nH]c3ncc(Cl)nc23)nc(-c2ccc(C3CC3)s2)c1F [Example 27, (2S,3S)-3-((2-(2-chloro-5H-pyrrolo[2,3-b]pyrazin-7-yl)-6-(5-cyclopropylthiophen-2-yl)-5-fluoropyrimidin-4-yl)amino)bicyclo[2.2.2]octane-2-carboxylic Acid] | 1960 | 1960 | 144 | 7250 | 7170 | 0.024 | – | –
6 | O=C(O)[C@H]1C2CCC(CC2)[C@@H]1Nc1nc(-c2c[nH]c3ncc(Cl)nc23)nc(-c2ccc(Cl)s2)c1F [Example 29, (2S,3S)-3-((2-(2-chloro-5H-pyrrolo[2,3-b]pyrazin-7-yl)-6-(5-chlorothiophen-2-yl)-5-fluoropyrimidin-4-yl)amino)bicyclo[2.2.2]octane-2-carboxylic Acid] | 4980 | 4830 | 56.3 | 23800 | 23700 | 0.013 | – | –
7 | Cc1ccc(-c2nc(-c3c[nH]c4ncc(Cl)nc34)nc(N[C@H]3C4CCC(CC4)[C@@H]3C(=O)O)c2F)s1 [Example 33, (2S,3S)-3-((2-(2-chloro-5H-pyrrolo[2,3-b]pyrazin-7-yl)-5-fluoro-6-(5-methylthiophen-2-yl)pyrimidin-4-yl)amino)bicyclo[2.2.2]octane-2-carboxylic Acid] | – | – | – | – | – | 0.01 | – | –
8 | O=C(O)[C@H]1C2CCC(CC2)[C@@H]1Nc1cc(N2CCN(c3ccccc3)CC2)nc(-c2c[nH]c3ncc(Cl)nc23)n1 [Example 39, (2S,3S)-3-((2-(2-chloro-5H-pyrrolo[2,3-b]pyrazin-7-yl)-6-(4-phenylpiperazin-1-yl)pyrimidin-4-yl)amino)bicyclo[2.2.2]octane-2-carboxylic Acid] | – | – | – | – | – | 1.22 | – | –
9 | O=C(O)[C@H]1C2CCC(CC2)[C@@H]1Nc1nc(-c2c[nH]c3ncc(Cl)nc23)nc(-c2nccs2)c1F [Example 49, (2S,3S)-3-((2-(2-chloro-5H-pyrrolo[2,3-b]pyrazin-7-yl)-5-fluoro-6-(thiazol-2-yl)pyrimidin-4-yl)amino)bicyclo[2.2.2]octane-2-carboxylic Acid] | 3950 | 3940 | 71.5 | 3550 | 3500 | 0.521 | – | –
10 | O=C(O)[C@H]1C2CCC(CC2)[C@@H]1Nc1cc(-n2cccc2)nc(-c2c[nH]c3ncc(Cl)nc23)n1 [Example 55, (2S,3S)-3-((2-(2-chloro-5H-pyrrolo[2,3-b]pyrazin-7-yl)-6-(1H-pyrrol-1-yl)pyrimidin-4-yl)amino)bicyclo[2.2.2]octane-2-carboxylic Acid] | – | – | – | – | – | 0.68 | – | –
11 | O=C(O)[C@H]1C2CCC(CC2)[C@@H]1Nc1nc(-c2c[nH]c3ncc(Cl)nc23)nc(-n2cccc2)c1F [Example 60, (2S,3S)-3-((2-(2-chloro-5H-pyrrolo[2,3-b]pyrazin-7-yl)-5-fluoro-6-(1H-pyrrol-1-yl)pyrimidin-4-yl)amino)bicyclo[2.2.2]octane-2-carboxylic Acid] | – | – | – | – | – | – | 26400 | –
12 | O=C(O)[C@H]1C2CCC(CC2)[C@@H]1Nc1nc(-c2c[nH]c3ncc(Cl)nc23)nc(-c2ccc(F)s2)c1F [Example 62, (2S,3S)-3-((2-(2-chloro-5H-pyrrolo[2,3-b]pyrazin-7-yl)-5-fluoro-6-(5-fluorothiophen-2-yl)pyrimidin-4-yl)amino)bicyclo[2.2.2]octane-2-carboxylic Acid] | 5510 | 5390 | 50.7 | 25000 | 24400 | 0.011 | – | –
13 | N#Cc1ccc(-c2nc(-c3c[nH]c4ncc(Cl)nc34)nc(N[C@H]3C4CCC(CC4)[C@@H]3C(=O)O)c2F)s1 [Example 63, (2S,3S)-3-((2-(2-chloro-5H-pyrrolo[2,3-b]pyrazin-7-yl)-6-(5-cyanothiophen-2-yl)-5-fluoropyrimidin-4-yl)amino)bicyclo[2.2.2]octane-2-carboxylic acid] | – | – | – | – | – | 0.079 | – | –
14 | O=C(O)[C@H]1C2CCC(CC2)[C@@H]1Nc1nc(-c2c[nH]c3nccnc23)nc(-c2cccs2)c1F [Example 64, (2S,3S)-3-((5-fluoro-2-(5H-pyrrolo[2,3-b]pyrazin-7-yl)-6-(thiophen-2-yl)pyrimidin-4-yl)amino)bicyclo[2.2.2]octane-2-carboxylic Acid] | – | – | – | – | – | 0.887 | – | –
15 | CC(C)Cn1ccc2c(N[C@H]3C4CCC(CC4)[C@@H]3C(=O)O)nc(-c3c[nH]c4ncc(Cl)nc34)nc21 [Example 66, (2S,3S)-3-((2-(2-chloro-5H-pyrrolo[2,3-b]pyrazin-7-yl)-7-isobutyl-7H-pyrrolo[2,3-d]pyrimidin-4-yl)amino)bicyclo[2.2.2]octane-2-carboxylic Acid] | 3480 | 3470 | 82.5 | 12600 | 12500 | 0.274 | – | –
16 | O=C(O)C1C2CCC(CC2)C1Nc1nc(-c2c[nH]c3ncc(F)cc23)ncc1F (stereo not drawn) [JNJ-872, reference compound] | – | – | – | – | – | – | – | > 50000
